{"source": "patent US7169411B1", "about": "“Composition for delivery of biological agents and methods for the preparation thereof” (The University of Nebraska Board of Regents, priority 1997, dated 2007)", "assay": "Potentiometric binding isotherms of surfactants to polyethylene oxide-block-poly(sodium methacrylate)", "format": "physicochemical", "conditions": "FIG. 1", "text": "While not wishing to be bound by any particular theory, it is believed that the above-described surfactants and block copolymers of opposite charge form stable complexes due to cooperative binding. (See, e.g., Goddard, In Interactions of Surfactants with Polymers and Proteins. Goddard and Ananthapadmanabhan, Eds., pp. 171 et seq., CRC Press, Boca Raton, Ann Arbor, London, Tokyo, 1992). Cooperative binding occurs in the sense that binding of surfactant molecules to the block copolymer is enhanced by the presence of other molecules of the same or a different surfactant already bound to the same copolymer. According to the cooperative binding mechanism which is believed to underlie this invention, surfactant binds electrostatically to the oppositely charged P-type segments of the block copolymer to form supramolecular complexes. […]\nB. The binding isotherms of cetylpyridinium bromide (Sigma Co.) and dodecylpyridinium bromide (Sigma Co.) with the polyethylene oxide-block-poly(sodium methacrylate) copolymer were determined potentiometrically by using the following ion-selective electrode: Ag/AgCl | 1 M NH4NO3 agar bridge | reference solution (surfactant, 2.5·10^−4 M) | PVC membrane | sample solution | 1 M NH4NO3 agar bridge | Ag/AgCl. […] The electromotive force (emf) of the cell was measured with a digital Radiometer pHM-83 pH-meter. […]"}
{"compound": "CCCCCCCCCCCC[n+]1ccccc1.[Br-]", "note": "[dodecylpyridinium bromide]", "values": [{"measurement": "stability of the complex with the block copolymer relative to cetylpyridinium bromide", "result": "decreases the stability of the complex more than ten-fold"}]}
